Key:
patients with CRPC = assay: Dedicated QT study (QTc interval); type: in vivo, human
Source text: The maximum mean QTcF change from baseline was 12.4 ms (2-sided 90% upper CI. 16.0 ms).

CYP1A2 = CYP1A2 (Homo sapiens, UniProt P05177); assay: In vitro effect on CYP; settings: therapeutically relevant concentrations
OATP1B1 = OATP1B1 (Homo sapiens, UniProt Q9Y6L6); assay: In vitro transporter substrate study
CYP3A4 = CYP3A4 (Homo sapiens, UniProt P08684); assay: In vitro CYP inhibition
CYP2D6 = CYP2D6 (Homo sapiens, UniProt P10635); assay: In vitro effect on CYP; settings: therapeutically relevant concentrations
CYP2D6, sequence (P10635 whole entry): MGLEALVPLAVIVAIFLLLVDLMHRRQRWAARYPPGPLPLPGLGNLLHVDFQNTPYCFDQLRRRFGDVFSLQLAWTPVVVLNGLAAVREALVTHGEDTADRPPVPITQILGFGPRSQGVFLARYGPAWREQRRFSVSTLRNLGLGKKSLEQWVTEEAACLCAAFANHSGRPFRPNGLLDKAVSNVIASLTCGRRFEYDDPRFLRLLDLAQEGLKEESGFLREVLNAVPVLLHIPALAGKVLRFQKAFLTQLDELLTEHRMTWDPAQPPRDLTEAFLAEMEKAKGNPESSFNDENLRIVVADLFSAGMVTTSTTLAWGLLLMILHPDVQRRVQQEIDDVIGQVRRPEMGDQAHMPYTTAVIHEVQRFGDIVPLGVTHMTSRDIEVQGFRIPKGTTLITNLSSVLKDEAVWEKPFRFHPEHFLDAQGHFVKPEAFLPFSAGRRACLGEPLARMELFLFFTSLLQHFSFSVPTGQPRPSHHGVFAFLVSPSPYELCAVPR

[1] = test system: non-castrate hormone-sensitive and bicalutamide-resistant human prostate cancer xenograft models; settings: Clegg et al. Cancer Res. 2012; cited from earlier work
P-gp = P-gp (Homo sapiens, UniProt P08183); assay: In vitro transporter substrate study
P-gp, sequence (P08183 whole entry): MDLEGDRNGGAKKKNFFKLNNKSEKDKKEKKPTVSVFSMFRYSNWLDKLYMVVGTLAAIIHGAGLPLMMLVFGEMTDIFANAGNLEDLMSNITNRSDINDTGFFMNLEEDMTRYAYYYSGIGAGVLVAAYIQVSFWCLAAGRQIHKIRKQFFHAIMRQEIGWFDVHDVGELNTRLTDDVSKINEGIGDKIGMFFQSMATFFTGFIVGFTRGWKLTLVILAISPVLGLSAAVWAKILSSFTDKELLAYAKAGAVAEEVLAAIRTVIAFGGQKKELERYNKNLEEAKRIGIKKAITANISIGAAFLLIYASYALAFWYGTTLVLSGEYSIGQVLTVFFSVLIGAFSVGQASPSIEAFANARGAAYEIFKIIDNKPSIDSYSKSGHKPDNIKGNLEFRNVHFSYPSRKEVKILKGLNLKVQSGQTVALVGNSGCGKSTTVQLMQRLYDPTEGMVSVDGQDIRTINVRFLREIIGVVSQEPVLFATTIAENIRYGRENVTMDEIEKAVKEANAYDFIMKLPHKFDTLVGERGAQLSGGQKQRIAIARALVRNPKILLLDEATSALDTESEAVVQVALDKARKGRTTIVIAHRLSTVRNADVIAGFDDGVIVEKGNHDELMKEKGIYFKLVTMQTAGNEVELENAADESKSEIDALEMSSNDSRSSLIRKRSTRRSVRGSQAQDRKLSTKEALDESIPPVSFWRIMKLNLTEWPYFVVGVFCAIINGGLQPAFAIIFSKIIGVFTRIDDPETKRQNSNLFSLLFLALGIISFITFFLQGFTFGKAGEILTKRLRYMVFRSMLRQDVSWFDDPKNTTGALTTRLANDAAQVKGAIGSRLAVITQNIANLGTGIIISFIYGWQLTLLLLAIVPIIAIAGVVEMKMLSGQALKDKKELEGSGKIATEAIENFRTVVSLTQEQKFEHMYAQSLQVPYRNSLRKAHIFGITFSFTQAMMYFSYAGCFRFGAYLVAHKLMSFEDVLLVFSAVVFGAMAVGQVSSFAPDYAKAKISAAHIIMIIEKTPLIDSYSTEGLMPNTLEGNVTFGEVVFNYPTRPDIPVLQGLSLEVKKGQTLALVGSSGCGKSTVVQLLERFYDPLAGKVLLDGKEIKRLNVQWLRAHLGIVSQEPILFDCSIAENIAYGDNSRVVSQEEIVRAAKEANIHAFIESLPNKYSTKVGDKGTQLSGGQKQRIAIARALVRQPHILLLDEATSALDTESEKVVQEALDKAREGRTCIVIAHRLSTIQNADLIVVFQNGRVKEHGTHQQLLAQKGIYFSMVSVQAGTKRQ

male rats = assay: Fertility study in male rats; type: in vivo, rat
[2] = Effect of food on apalutamide pharmacokinetics (healthy subjects); type: in vivo, human
Experimental: Median time to reach tmax was delayed approximately 2 hours with food.

CYP2C19 = CYP2C19 (Homo sapiens, UniProt P33261); assay: In vitro CYP inhibition
CYP2C19, sequence (P33261 whole entry): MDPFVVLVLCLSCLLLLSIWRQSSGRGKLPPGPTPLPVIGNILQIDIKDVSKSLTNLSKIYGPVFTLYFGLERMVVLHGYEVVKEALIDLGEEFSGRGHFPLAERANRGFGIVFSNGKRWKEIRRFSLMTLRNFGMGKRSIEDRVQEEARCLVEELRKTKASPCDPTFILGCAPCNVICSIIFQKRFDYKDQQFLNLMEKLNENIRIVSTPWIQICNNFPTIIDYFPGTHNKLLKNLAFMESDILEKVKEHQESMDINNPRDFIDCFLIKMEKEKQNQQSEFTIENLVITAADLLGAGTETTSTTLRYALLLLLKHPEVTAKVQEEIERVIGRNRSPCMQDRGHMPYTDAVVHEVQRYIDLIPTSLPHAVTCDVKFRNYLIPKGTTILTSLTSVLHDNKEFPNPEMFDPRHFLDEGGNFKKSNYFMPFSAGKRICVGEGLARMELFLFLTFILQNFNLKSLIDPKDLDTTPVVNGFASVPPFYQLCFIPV

[3] = test system: patients with metastatic castration-sensitive prostate cancer (mCSPC); assay: Phase 3 study (TITAN) of apalutamide plus ADT versus placebo plus ADT: efficacy; type: in vivo, human
Experimental: The data presented herein as associated with this study reflects the state of this study at the time of this filing. The study was conducted at 260 sites in 23 countries. Review boards at all participating institutions approved the study, which was conducted in accordance with current International Conference on Harmonization guidelines for Good Clinical Practice and according to Declaration of Helsinki principles. All patients provided written informed consent. An independent data-monitoring committee was commissioned by the sponsor to monitor safety and efficacy before unblinding and make study conduct recommendations. Data were transcribed by personnel at each site from source documents into sponsor-prepared electronic case report forms. Blinding of investigators, patients, study site personnel, and sponsor study team to randomization codes was maintained until study completion, independent data-monitoring committee recommendation, or individual patient medical need.
Patients were stratified by Gleason score at diagnosis (≤7 vs. >7), region (North America and European Union vs. all other countries), and prior treatment with docetaxel (yes vs. no). A Screening Phase of up to 28 days before randomization established study eligibility. Subjects will receive/received treatment in 28-day cycles during the Treatment Phase until disease progression or the occurrence of unacceptable treatment-related toxicity or the sponsor terminates the study. […] During the Follow-up Phase, data collection (every 4 months) will include survival, additional data on secondary endpoints, date and type of disease progression (radiographic, PSA, clinical or a combination) on the first subsequent therapy for prostate cancer, and subsequent therapy for prostate cancer. Data collection in follow-up will continue until the subject dies, withdraws consent, is lost to follow-up or the study is terminated by the sponsor. The Brief Pain Inventory Short Form (BPI SF), Brief Fatigue Inventory (BFI), and EQ-5D-5L patient-report outcome (PRO) measures will also continue in the Follow-up Phase up to 12 months after treatment discontinuation.
Eligible patients were required to have documented adenocarcinoma of the prostate and distant metastatic disease documented by ≥1 lesion on bone scan, with or without visceral or lymph node involvement. […] Patients were castration sensitive (i.e., patients who are not receiving ADT at the time of progression). Previous treatment for prostate cancer was limited to prior docetaxel (maximum six cycles, no evidence of progression during treatment or before randomization), ADT for ≤6 months for metastatic castration-sensitive prostate cancer or ≤3 years total duration for localized prostate cancer, one course of radiation or surgical therapy for symptoms associated with metastatic disease, and other localized treatments (e.g., radiation therapy, prostatectomy) completed ≥1 year before randomization. Patients who had received a gonadotropin-releasing hormone agonist ≤28 days before randomization were required to take a first-generation antiandrogen (i.e., biclutamide, flutamide, or nilutamide) for ≥14 days before randomization. Antiandrogen must have been discontinued before randomization. Patients with severe angina, myocardial infarction, congestive heart failure, arterial/venous thromboembolic events, history of or predisposition for seizure, or recent ventricular arrhythmias were excluded.

[4] = test system: bacterial reverse mutation (Ames) assay; type: cell-based
[5] = test system: in vitro chromosome aberration assay; assay: In vitro chromosome aberration assay; type: cell-based
CYP2C8 = target: T1, CYP2C8 (Homo sapiens, UniProt P10632); assay: Co-administration with gemfibrozil (strong CYP2C8 inhibitor); type: in vivo; design: endogenous in cells; host or cells: human subjects, in vivo; settings: ERLEADA 240 mg single dose with gemfibrozil
T1 sequence (P10632 1-490): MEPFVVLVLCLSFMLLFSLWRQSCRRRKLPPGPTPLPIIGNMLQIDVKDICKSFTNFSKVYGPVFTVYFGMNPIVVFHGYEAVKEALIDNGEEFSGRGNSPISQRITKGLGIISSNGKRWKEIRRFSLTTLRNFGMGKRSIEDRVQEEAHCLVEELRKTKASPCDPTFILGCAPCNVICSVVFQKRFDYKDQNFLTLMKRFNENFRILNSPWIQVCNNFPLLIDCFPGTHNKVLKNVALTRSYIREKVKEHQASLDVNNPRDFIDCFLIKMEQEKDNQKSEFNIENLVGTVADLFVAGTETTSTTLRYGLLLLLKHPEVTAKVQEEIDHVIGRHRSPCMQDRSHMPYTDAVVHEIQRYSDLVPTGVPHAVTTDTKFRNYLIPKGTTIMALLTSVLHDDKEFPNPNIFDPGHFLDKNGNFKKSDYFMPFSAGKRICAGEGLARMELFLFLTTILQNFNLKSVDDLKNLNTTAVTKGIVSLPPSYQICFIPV

CYP2C9 = CYP2C9 (Homo sapiens, UniProt P11712); assay: In vitro CYP inhibition
CYP2C9, sequence (P11712 whole entry): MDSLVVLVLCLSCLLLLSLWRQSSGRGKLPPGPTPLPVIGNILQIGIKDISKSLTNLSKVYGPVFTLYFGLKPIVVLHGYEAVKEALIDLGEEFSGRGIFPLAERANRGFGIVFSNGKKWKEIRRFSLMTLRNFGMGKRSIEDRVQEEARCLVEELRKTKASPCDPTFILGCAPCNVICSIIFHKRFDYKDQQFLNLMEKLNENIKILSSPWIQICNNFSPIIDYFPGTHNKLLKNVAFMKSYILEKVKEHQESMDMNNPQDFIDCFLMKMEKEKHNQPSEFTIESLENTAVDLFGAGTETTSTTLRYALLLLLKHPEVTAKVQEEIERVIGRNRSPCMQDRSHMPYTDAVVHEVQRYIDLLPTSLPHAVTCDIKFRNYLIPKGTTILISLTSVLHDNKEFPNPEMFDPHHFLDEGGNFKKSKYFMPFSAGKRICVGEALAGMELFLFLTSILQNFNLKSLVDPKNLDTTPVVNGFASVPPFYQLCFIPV

CYP3A4, sequence (P08684 whole entry): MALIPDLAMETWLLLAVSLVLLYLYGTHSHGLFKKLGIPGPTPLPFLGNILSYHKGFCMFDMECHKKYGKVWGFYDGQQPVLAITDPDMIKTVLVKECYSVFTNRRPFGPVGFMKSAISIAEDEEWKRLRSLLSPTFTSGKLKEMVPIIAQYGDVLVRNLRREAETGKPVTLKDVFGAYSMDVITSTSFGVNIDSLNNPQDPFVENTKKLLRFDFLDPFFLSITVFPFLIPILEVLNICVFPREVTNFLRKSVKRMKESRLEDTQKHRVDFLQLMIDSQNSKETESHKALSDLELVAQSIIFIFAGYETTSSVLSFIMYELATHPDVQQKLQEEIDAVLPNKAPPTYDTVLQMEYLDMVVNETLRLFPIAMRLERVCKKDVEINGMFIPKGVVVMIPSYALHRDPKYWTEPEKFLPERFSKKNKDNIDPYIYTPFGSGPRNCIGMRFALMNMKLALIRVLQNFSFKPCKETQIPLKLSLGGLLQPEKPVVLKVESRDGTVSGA
OATP1B1, sequence (Q9Y6L6 whole entry): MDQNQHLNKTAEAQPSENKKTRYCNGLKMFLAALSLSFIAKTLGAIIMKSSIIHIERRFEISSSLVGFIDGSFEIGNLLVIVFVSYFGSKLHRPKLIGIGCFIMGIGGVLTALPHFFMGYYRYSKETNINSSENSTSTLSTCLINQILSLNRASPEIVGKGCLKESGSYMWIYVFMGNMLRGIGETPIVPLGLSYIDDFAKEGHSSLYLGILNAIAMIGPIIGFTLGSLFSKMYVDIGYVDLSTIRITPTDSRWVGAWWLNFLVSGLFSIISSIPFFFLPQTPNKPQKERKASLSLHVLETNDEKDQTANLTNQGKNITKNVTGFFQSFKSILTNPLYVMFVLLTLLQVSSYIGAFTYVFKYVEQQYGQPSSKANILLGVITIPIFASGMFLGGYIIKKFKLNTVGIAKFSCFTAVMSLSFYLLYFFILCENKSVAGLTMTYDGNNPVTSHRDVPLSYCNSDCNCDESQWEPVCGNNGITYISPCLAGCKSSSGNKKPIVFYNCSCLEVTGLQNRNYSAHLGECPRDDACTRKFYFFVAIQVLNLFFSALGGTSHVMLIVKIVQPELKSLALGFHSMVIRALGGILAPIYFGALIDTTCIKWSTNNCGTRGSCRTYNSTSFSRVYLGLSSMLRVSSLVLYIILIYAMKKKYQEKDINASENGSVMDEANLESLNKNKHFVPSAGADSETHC
CYP1A2, sequence (P05177 whole entry): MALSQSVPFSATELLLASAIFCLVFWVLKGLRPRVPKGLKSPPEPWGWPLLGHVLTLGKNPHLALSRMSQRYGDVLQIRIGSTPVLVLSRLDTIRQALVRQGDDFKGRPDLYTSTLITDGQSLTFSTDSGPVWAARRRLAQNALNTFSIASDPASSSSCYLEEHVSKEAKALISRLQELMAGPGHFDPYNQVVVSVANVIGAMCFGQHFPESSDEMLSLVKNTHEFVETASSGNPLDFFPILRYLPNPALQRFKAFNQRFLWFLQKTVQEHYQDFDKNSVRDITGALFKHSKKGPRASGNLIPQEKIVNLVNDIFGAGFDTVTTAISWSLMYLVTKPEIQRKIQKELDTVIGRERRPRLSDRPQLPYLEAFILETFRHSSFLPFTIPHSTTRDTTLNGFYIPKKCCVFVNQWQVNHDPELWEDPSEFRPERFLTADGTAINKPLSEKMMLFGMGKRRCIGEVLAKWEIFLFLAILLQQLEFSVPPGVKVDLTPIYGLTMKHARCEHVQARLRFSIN

With `CNC(=O)c1ccc(N2C(=S)N(c3cnc(C#N)c(C(F)(F)F)c3)C(=O)C23CCC3)cc1F` [Apalutamide, 4-[7-(6-cyano-5-trifluoromethylpyridin-3-yl)-8-oxo-6-thioxo-5,7-diazaspiro[3.4]oct-5-yl]-2-fluoro-N-methylbenzamide] the “Maximum mean QTcF change from baseline” value (patients with CRPC; apalutamide 240 mg once daily, 45 patients with CRPC, 2-sided 90% upper CI 16.0 ms) was 12.4 ms, the Exposure-QT analysis (patients with CRPC; in vivo) was “concentration-dependent increase in QTcF” and the “Effect on CYP1A2” value (CYP1A2) was “do not affect”. The “Substrate for OATP1B1” value (OATP1B1) was “not”, the CYP3A4 inhibition (CYP3A4) was “weak inhibitors” and the “Effect on CYP2D6” value (CYP2D6) was “do not affect”. The Tumor response [1] was “partial or complete tumor regression”, the “Substrate for P-gp” value (P-gp) was “substrates” and the “Dose at which a reduced number of live fetuses due to increased pre- and/or post-implantation loss was observed” value (male rats; 4 weeks of administration) was 150 mg/kg/day. The “Dose at which decreased sperm concentration and motility, abnormal sperm morphology, lower copulation and fertility rates, reduced secondary sex gland and epididymis weights were observed” value (male rats; 4 weeks of dosing) was at least 25 mg/kg/day, the “Time after last administration at which effects on male rats were reversible” value (male rats; rat, in vivo) was 8 weeks and the “Change in Cmax and AUC with a high-fat meal vs fasting” value [2] was “no clinically relevant changes”. The CYP2C19 inhibition (CYP2C19) was “weak inhibitors”, the “Treatment discontinuations as the result of progressive disease” value ([3]; 99 patients) was 19% and the “Deaths at cutoff for the first interim analysis” value ([3]; 525 patients randomized) was 83. The Radiographic progression events ([3]; 525 patients randomized) was 134, the “Median radiographic progression-free survival” value ([3]; final analysis for rPFS) was “not reached” and the “Overall survival, 24-month event-free rate” value ([3]; in vivo) was 82%. For the same compound, the “Patients in whom PSA reached undetectable levels (PSA<0.2 ng per ml)” value ([3]; in vivo) was 68%, the “Radiographic progression-free survival, 24-month event-free rate” value ([3]; in vivo) was 68% and the “Change in FACT-P from baseline (health-related quality of life)” value ([3]; mixed-effect repeated measures model) was “maintained health-related quality of life and no between-group difference”. For the same compound, the “Patients who discontinued because of disease progression” value ([3]; n = 525) was 99 (18.9) no. (%), the “Reduction in risk of death” value ([3]; vs placebo + ADT) was 33% and the “Reduction in risk of radiographic progression or death” value ([3]; vs placebo + ADT) was 52%. For the same compound, the Mutagenicity [4] was “did not induce mutations”, the Genotoxicity [5] was “not genotoxic” and the “Apalutamide AUC increase” value (CYP2C8) was 68%. For the same compound, the “Apalutamide Cmax decrease” value (CYP2C8) was 21% and the CYP2C9 inhibition (CYP2C9) was “weak inhibitors”.
